Source: patent publication US7101878B1 (Agouron Pharmaceuticals, Inc., priority 1998, dated 2006)
Where two headings read alike, the source gives them in different places.

Target: T1, human GnRH receptor (Homo sapiens, UniProt P30968)
T1 construct: expressed in transfected cells; host or cells: HEK 293 (hGnRH-R/293, from Dr. Stuart Sealfon)
T1 sequence (P30968 1-328): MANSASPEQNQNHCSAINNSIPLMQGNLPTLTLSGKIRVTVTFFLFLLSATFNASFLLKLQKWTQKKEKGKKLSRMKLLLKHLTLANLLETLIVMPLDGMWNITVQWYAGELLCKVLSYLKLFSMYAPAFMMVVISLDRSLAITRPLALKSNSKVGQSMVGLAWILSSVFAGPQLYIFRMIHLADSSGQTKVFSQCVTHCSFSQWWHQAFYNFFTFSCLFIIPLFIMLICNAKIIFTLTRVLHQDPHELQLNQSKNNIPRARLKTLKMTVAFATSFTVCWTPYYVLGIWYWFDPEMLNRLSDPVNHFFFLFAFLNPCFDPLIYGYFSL
Assay: Radioligand binding, 125I-GnRH-A displacement, membranes of HEK 293 cells with human GnRH receptor
Settings: for IC50: read-out: hGnRH IC50; for remaining activity at 10 µM: read-out: S%R 10 uM hGnRHR; for remaining activity at 1 µM: 1 uM compound, read-out: S%R 1 uM hGnRHR
Outline: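 Bound tracer was separated by filtration through polyethyleneimine-soaked GF/C filters and counted by liquid scintillation. IC50 from curve fitting; other species were tested under the same conditions.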

[1] = 1 uM, read-out: % Inhib. @ 1 uM hGnRH
[2] = 1 h, repeat of % Inhib. at 1 uM, read-out: Repeats @ 1 uM hGnRH
[3] = 1 h, substrate remaining, 10 uM compound, closer to zero = closer to 100% inhibition
[4] = 1 h, substrate remaining, closer to zero = closer to 100% inhibition

| inhibition at 1 µM [1] [%] | inhibition at 1 µM [2] [%] | Compound | further results |
| --- | --- | --- | --- |
|  |  | Cc1cc2c(cc1Cc1ccc(C(=O)N3C[C@@H]4CCCC[C@@H]4CC3C(=O)NC(C)(C)C)o1)C(C)(C)CCC2(C)C (stereo partly drawn) [Compound 38.5] | IC50: > 10000 nM |
|  |  | Cc1cc2c(cc1Cc1ccc(C(=O)NCC3CN(Cc4ccccc4)CCO3)o1)C(C)(C)CCC2(C)C (stereo not drawn) [Compound 59] | IC50: 980 nM |
| 41 | 44 | Cc1cc2c(cc1Cc1ccc(C(=O)NC(C)c3ccc([N+](=O)[O-])cc3)o1)C(C)(C)CCC2(C)C (stereo not drawn) [drawing 1238] |  |
| -18 | 6 | Cc1cc2c(cc1Cc1ccc(C(=O)N3CCN(c4ccc([N+](=O)[O-])cc4)CC3)o1)C(C)(C)CCC2(C)C |  |
| -7 | 4 | Cc1cc2c(cc1Cc1ccc(C(=O)N(C)[C@@H](C)[C@H](C)c3ccccc3)o1)C(C)(C)CCC2(C)C |  |
| -12 | 14 | Cc1cc2c(cc1Cc1ccc(C(=O)NC3CCN(Cc4ccccc4)CC3)o1)C(C)(C)CCC2(C)C |  |
|  |  | Cc1cc2c(cc1Cc1ccc(C(=O)NCCc3c[nH]cn3)o1)C(C)(C)CCC2(C)C [drawing 1051] | % Inhib. @ 1 uM hGnRH (1 uM): 32%; Repeats @ 1 uM hGnRH (repeat of % Inhib. at 1 uM): 36 |
| 49 | 52 | Cc1cc2c(cc1Cc1ccc(C(=O)NCc3ccc(Br)cc3)o1)C(C)(C)CCC2(C)C [drawing 1234] |  |
|  |  | Cc1cc2c(cc1Cc1ccc(C(=O)Nc3ccccc3CO)o1)C(C)(C)CCC2(C)C [Compound 333] | remaining activity at 10 µM [3]: 28% |
| 67 | 70 | Cc1cc2c(cc1Cc1ccc(C(=O)NCCCN(C)c3ccccc3)o1)C(C)(C)CCC2(C)C [drawing 1000] |  |
|  |  | Cc1cc2c(cc1Cc1ccc(C(=O)Nc3ccc4[nH]ccc4c3)o1)C(C)(C)CCC2(C)C [Compound 354] | S%R 10 uM hGnRHR (substrate remaining, 10 uM compound, closer to zero = closer to 100% inhibition): −5% |
|  |  | Cc1cc2c(cc1Cc1ccc(C(=O)NC3CC3)o1)C(C)(C)CCC2(C)C [Compound 431] | remaining activity at 1 µM [4]: 47% |
|  |  | Cc1cc2c(cc1Cc1ccc(C(=O)NCc3cccc(F)c3)o1)C(C)(C)CCC2(C)C [Compound 443] | remaining activity at 1 µM [4]: 19% |
|  |  | Cc1cc2c(cc1Cc1ccc(C(=O)Nn3c(O)nnc3-c3ccccc3)o1)C(C)(C)CCC2(C)C | inhibition at 10 µM (repeat, read-out: Repeats @ 10 uM hGnRH (% inhib.)): -25%; inhibition at 10 µM (read-out: % inhib. @ 10 uM hGnRH): -25% |
| -4 | -7 | Cc1cc2c(cc1Cc1ccc(C(=O)N3CCN(c4ccc(C(F)(F)F)cn4)CC3)o1)C(C)(C)CCC2(C)C |  |
|  |  | Cc1cc2c(cc1Cc1ccc(C(=O)NCc3ccccc3Oc3ccccc3CO)o1)C(C)(C)CCC2(C)C [Compound 421] | remaining activity at 1 µM [4]: 48% |
| 35 | 36 | Cc1cc2c(cc1Cc1ccc(C(=O)NCCCN(CCO)CCO)o1)C(C)(C)CCC2(C)C |  |
|  |  | Cc1cc2c(cc1Cc1ccc(C(=O)N3CCN(CCN(Cc4ccccn4)C(=O)c4ccc(Cc5cc6c(cc5C)C(C)(C)CCC6(C)C)o4)CC3)o1)C(C)(C)CCC2(C)C [Compound 213] | IC50: > 10000 nM |
| 20 | 24 | Cc1cc2c(cc1Cc1ccc(C(=O)NCC3CCNCC3)o1)C(C)(C)CCC2(C)C [drawing 981] |  |
| -14 | -5 | Cc1cc2c(cc1Cc1ccc(C(=O)NCCCCCN3CCOCC3)o1)C(C)(C)CCC2(C)C |  |
| -17 | -27 | Cc1cc2c(cc1Cc1ccc(C(=O)N[C@@H](CO)Cc3c[nH]cn3)o1)C(C)(C)CCC2(C)C |  |
| 79 | 91 | Cc1cc2c(cc1Cc1ccc(C(=O)NCC3CCN(c4ccnc(Cl)n4)CC3)o1)C(C)(C)CCC2(C)C [drawing 1064] |  |
| 16 | 3 | Cc1cc2c(cc1Cc1ccc(C(=O)NC(CO)Cc3ccc(Cl)cc3)o1)C(C)(C)CCC2(C)C (stereo not drawn) |  |
| 57 | 60 | Cc1cc2c(cc1Cc1ccc(C(=O)NCc3ccccc3Br)o1)C(C)(C)CCC2(C)C [drawing 1223] |  |

| inhibition at 1 µM [1] [%] | inhibition at 1 µM [2] [%] | Compound | further results |
| --- | --- | --- | --- |
| -2 | 9 | Cc1cc2c(cc1Cc1ccc(C(=O)N(C)CC(O)c3cccc(O)c3)o1)C(C)(C)CCC2(C)C (stereo not drawn) |  |
| 19 | 29 | Cc1cc2c(cc1Cc1ccc(C(=O)NCCc3ccc(O)cc3)o1)C(C)(C)CCC2(C)C |  |
| 33 | 89 | Cc1cc2c(cc1Cc1ccc(C(=O)NCCc3cccc(C(F)(F)F)c3)o1)C(C)(C)CCC2(C)C [drawing 1020] |  |
|  |  | Cc1cc2c(cc1Cc1ccc(C(=O)Nc3cccc(C#N)c3)o1)C(C)(C)CCC2(C)C [Compound 351] | remaining activity at 10 µM [3]: 24% |
| -7 | 4 | Cc1cc2c(cc1Cc1ccc(C(=O)N(C)Cc3ccccc3)o1)C(C)(C)CCC2(C)C |  |
|  |  | Cc1cc2c(cc1Cc1ccc(C(=O)Nc3c(Cl)cc(Cl)cc3C(F)(F)F)o1)C(C)(C)CCC2(C)C [Compound 395] | remaining activity at 10 µM [3]: 40% |
| -12 | -9 | Cc1cc2c(cc1Cc1ccc(C(=O)N(CC(O)c3ccccc3)C3CCCCC3)o1)C(C)(C)CCC2(C)C (stereo not drawn) |  |
| 14 | 20 | Cc1cc2c(cc1Cc1ccc(C(=O)NCCSCc3c(Cl)cccc3Cl)o1)C(C)(C)CCC2(C)C |  |
|  |  | COc1ccc(OC)c(OC)c1Cc1ccc(C(=O)Nc2c(OC)cccc2OC)o1 [Compound 211] | IC50: 1320 nM |
| -26 | 11 | Cc1cc2c(cc1Cc1ccc(C(=O)NCC(O)c3ccc(O)c(O)c3)o1)C(C)(C)CCC2(C)C (stereo not drawn) |  |
|  |  | COc1cc(OC)c(NC(=O)c2ccc(Cc3c(C)c(C)c4c(c3C)C=CC(C)(C)O4)o2)c(OC)c1 [Compound 184] | IC50: 560 nM |
| 69 | 75 | COc1ccc(CNC(=O)c2ccc(Cc3cc4c(cc3C)C(C)(C)CCC4(C)C)o2)cc1OC [drawing 1095] |  |
|  |  | COc1cc(OC)c(NC(=O)c2ccc(Cc3c(C)c(C)c(C)c(C)c3C)o2)c(OC)c1 [Compound 197] | IC50: 1040 nM |
| 76 | 79 | COc1cccc(CNC(=O)c2ccc(Cc3cc4c(cc3C)C(C)(C)CCC4(C)C)o2)c1 [drawing 1188] |  |
|  |  | CCN(CC)CCNC(=O)c1ccc(NC(=O)c2ccc(Cc3cc4c(cc3C)C(C)(C)CCC4(C)C)o2)cc1 [Compound 321] | remaining activity at 10 µM [3]: 55% |
|  |  | Cc1cc2c(cc1Cc1ccc(C(=O)NCCCN3CCCC3=O)o1)C(C)(C)CCC2(C)C [Compound 424] | remaining activity at 1 µM [4]: 31% |
| 52 | 54 | CC(=O)NCCNC(=O)c1ccc(Cc2cc3c(cc2C)C(C)(C)CCC3(C)C)o1 [drawing 991] |  |
| -14 | -6 | Cc1cc2c(cc1Cc1ccc(C(=O)NCc3ccc(C(C)(C)C)cc3)o1)C(C)(C)CCC2(C)C [drawing 1140] |  |
|  |  | COc1cccc(OC)c1NC(=O)c1ccc(Cc2cc3c(cc2C)C(C)(C)CCC3(C)C)s1 [Compound 146] | IC50: > 10000 nM |
| 81 | 89 | Cc1cc2c(cc1Cc1ccc(C(=O)NCc3ccccc3F)o1)C(C)(C)CCC2(C)C [drawing 1090] |  |
| 18 | 22 | Cc1cc2c(cc1Cc1ccc(C(=O)NCCNc3cccc(NCC4CCCO4)n3)o1)C(C)(C)CCC2(C)C (stereo not drawn) |  |
| -10 | -5 | Cc1cc2c(cc1Cc1ccc(C(=O)N(CCO)Cc3ccccc3)o1)C(C)(C)CCC2(C)C |  |
| 49 | 58 | Cc1cc2c(cc1Cc1ccc(C(=O)NC3CC3)o1)C(C)(C)CCC2(C)C [drawing 1149] |  |
